This is an account of results in patent publication US12291518B2, “Thyroid hormone receptor agonists and use thereof” (Eccogene Inc., priority 2020, dated 2025).

One assay concerns the target T1, THR alpha-LBD (Homo sapiens, UniProt P10827).
T1 construct: except that THR alpha-LBD of a final concentration 0.25 nM was used; purchased Invitrogen PV4687
Put plainly: THR-α Coactivator Peptide Recruitment Assay (LanthaScreen TR-FRET). The format is biochemical. Conditions: TR-FRET coactivator recruitment, THR alpha-LBD 0.25 nM; for EC50: read-out: THRα EC50. The procedure: (§1) A time-resolved FRET (TR-FRET) assay was used to test representative compounds of the application.
(§2) THR-β Coactivator Peptide Recruitment Assay were conducted by using Invitrogen's LanthaScreen™ TR-FRET Thyroid Receptor beta Assay Kit (Catalog no. PV4686). Binding of an agonist to the nuclear receptor causes a subsequent binding of a coactivator peptide, resulting in fluorescence energy transfer from the labelled nuclear receptor to the proximal coactivator peptide, which reflects the binding affinity of the agonist and the nuclear receptor. The assay was conducted by following the manufacturer's instructions. Briefly, THR beta-LBD (the final concentration is 0.5 nM) was added to the 384-well assay plate containing test compounds, followed by addition of Fluorescein-SRC2-2 coactivator peptide and terbium (Tb)-labeled anti-GST antibody. The final concentration of THR beta-LBD, Fluorescein-SRC2-2 coactivator peptide and terbium (Tb)-labeled anti-GST antibody is 0.5 nM, 0.1 nM and 2 nM, respectively. After a gentle mix and incubation at room temperature for 2 h, the signal was read on the EnVision Multilabel Plate Reader at wavelengths of 520 nm and 495 nm. TR-FRET ratio was calculated by dividing the emission signal at 520 nm and the emission signal at 495 nm, and then was plotted against a sigmoidal dose response curve (four parameters, GraphPad™ Prism 8) to determine the EC50 value.
THR-α Coactivator Peptide Recruitment Assay were conducted by using Invitrogen's LanthaScreen™ TR-FRET Thyroid Receptor alpha Assay Kit (Catalog no. PV4687), following the same method described above except that THR alpha-LBD of a final concentration 0.25 nM was used.
(In general: Time-resolved FRET reads energy transfer from a long-lived donor to a nearby acceptor.)

For a further assay, the target named is T2, THR beta-LBD (Homo sapiens, UniProt P10828).
T2 construct: THR beta-LBD (the final concentration is 0.5 nM) was added to the 384-well assay plate; purchased Invitrogen PV4686
T2 sequence (P10828 217-461 limits assumed): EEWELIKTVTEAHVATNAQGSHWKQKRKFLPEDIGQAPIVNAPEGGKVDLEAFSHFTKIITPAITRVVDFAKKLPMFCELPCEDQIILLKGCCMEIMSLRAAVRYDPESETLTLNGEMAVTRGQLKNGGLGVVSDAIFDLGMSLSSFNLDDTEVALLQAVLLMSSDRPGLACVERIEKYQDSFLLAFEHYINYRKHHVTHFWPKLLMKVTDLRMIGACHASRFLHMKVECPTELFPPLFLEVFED
In words: THR-β Coactivator Peptide Recruitment Assay (LanthaScreen TR-FRET). The format is biochemical. Conditions: TR-FRET coactivator recruitment, THR beta-LBD 0.5 nM; for EC50: read-out: THRβ EC50. The protocol:
as §1, §2

Where only a bound is given, the exact number is not on record here.

T1 sequence (P10827 163-410 isoform P10827-2 limits assumed, other chains not shown): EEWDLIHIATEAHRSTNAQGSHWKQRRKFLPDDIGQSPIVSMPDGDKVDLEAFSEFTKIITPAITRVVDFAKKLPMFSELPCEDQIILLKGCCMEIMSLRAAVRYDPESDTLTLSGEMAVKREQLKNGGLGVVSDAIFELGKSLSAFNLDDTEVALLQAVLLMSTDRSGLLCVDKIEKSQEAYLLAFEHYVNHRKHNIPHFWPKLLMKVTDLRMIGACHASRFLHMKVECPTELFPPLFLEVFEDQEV

For orientation: EC50 means the concentration giving half of the maximal effect. Turning to `O=c1[nH]c(=O)n(-c2cc(Cl)c(Oc3ccc(O)c(S(=O)(=O)N[C@@H]4CC[C@@H](O)C4)c3)c(Cl)c2)nc1C(F)F` (racemic) [Compound 75, 5-(2,6-dichloro-4-(6-(difluoromethyl)-3,5-dioxo-4,5-dihydro-1,2,4-triazin-2(3H)-yl)phenoxy)-2-hydroxy-N-((1R,3R)-3-hydroxycyclopentyl)benzenesulfonamide], at THR alpha-LBD, the “THRα Emax” value was “B (40~85)” and the EC50 is 200 to 1000 nM. Besides, at THR beta-LBD, the “THRβ Emax” value is reported as “C (<75)” and the half-maximal effective concentration (EC50) lay in the range of 2 to 20 nM.
For `O=C(c1cc(Oc2c(Cl)cc(-n3nc(Cl)c(=O)[nH]c3=O)cc2Cl)ccc1O)N1C[C@H]2CC[C@@H]1C2` (single isomer, unassigned) [Compound 7], in that order: “A (85~110)”, 2 to 200 nM, “A (90~110)” and less than 2 nM.
As for `O=C(c1cc(Oc2c(Cl)cc(-n3nc(Cl)c(=O)[nH]c3=O)cc2Cl)ccc1O)N1C[C@@H]2CC[C@H]1C2` (single isomer, unassigned) [Compound 8], at THR alpha-LBD, the “THRα Emax” value is given as “B (40~85)” and the EC50 lay within 2 to 200 nM. Further, on THR beta-LBD, the “THRβ Emax” value is on record as “B (75~90)” and the half-maximal effective concentration (EC50) was less than 2 nM.
Consider `CN1C[C@@H](NS(=O)(=O)c2cc(Oc3c(Cl)cc(-n4nc(C(F)F)c(=O)[nH]c4=O)cc3Cl)ccc2O)CC1=O` (single isomer, unassigned) [Compound 34], for which, on THR alpha-LBD, the “THRα Emax” value is given as “B (40~85)” and the EC50 lay in the range of 200 to 1000 nM. At THR beta-LBD, the “THRβ Emax” value is listed as “C (<75)” and the EC50 lay in the range of 20 to 100 nM.
For `CN1C[C@H](NS(=O)(=O)c2cc(Oc3c(Cl)cc(-n4nc(C(F)F)c(=O)[nH]c4=O)cc3Cl)ccc2O)CC1=O` (single isomer, unassigned) [Compound 35], in that order: “B (40~85)”, 200 to 1000 nM, “C (<75)” and 20 to 100 nM.
For `O=c1[nH]c(=O)n(-c2cc(Cl)c(Oc3cc(S(=O)(=O)N[C@@H]4CC[C@@H]4O)c(O)cn3)c(Cl)c2)nc1C(F)F` (stereo in doubt) [Compound 170, 2-[2,6-dichloro-4-[6-(difluoromethyl)-3,5-dioxo-1,2,4-triazin-2-yl]phenoxy]-5-hydroxy-N-[(1R,2S)-2-hydroxycyclobutyl]pyridine-4-sulfonamide], in that order: “B (40~85)”, 200 to 1000 nM, “C (<75)” and 20 to 100 nM.
For `O=c1[nH]c(=O)n(-c2cc(Cl)c(Oc3cc(S(=O)(=O)N[C@@H]4CC[C@H]4O)c(O)cn3)c(Cl)c2)nc1C(F)F` (stereo in doubt) [Compound 171, 2-[2,6-dichloro-4-[6-(difluoromethyl)-3,5-dioxo-1,2,4-triazin-2-yl]phenoxy]-5-hydroxy-N-[(1R,2R)-2-hydroxycyclobutyl]pyridine-4-sulfonamide], in that order: “C (<40)”, 200 to 1000 nM, “C (<75)” and 20 to 100 nM.
For `O=C(NC1CCC1)c1cc(Oc2c(Cl)cc(-n3nc(C(F)F)c(=O)[nH]c3=O)cc2Cl)ccc1O` [Compound 1, N-cyclobutyl-5-[2,6-dichloro-4-[6-(difluoromethyl)-3,5-dioxo-1,2,4-triazin-2-yl]phenoxy]-2-hydroxy-benzamide], on THR alpha-LBD, the “THRα Emax” value is given as “B (40~85)” and the half-maximal effective concentration (EC50) lay in the range of 2 to 200 nM. In addition, at THR beta-LBD, the “THRβ Emax” value was “A (90~110)” and the concentration giving a half-maximal response (EC50) fell in the range of 2 to 20 nM.
In the case of `O=C(N[C@H]1C[C@H](O)C1)c1cc(Oc2c(Cl)cc(-n3nc(C(F)F)c(=O)[nH]c3=O)cc2Cl)ccc1O` [Compound 2, 5-(2,6-dichloro-4-(6-(difluoromethyl)-3,5-dioxo-4,5-dihydro-1,2,4-triazin-2(3H)-yl)phenoxy)-2-hydroxy-N-((1r,3r)-3-hydroxycyclobutyl)benzamide], at THR alpha-LBD, the “THRα Emax” value is recorded as “B (40~85)” and the 50% effective concentration (EC50) was in the range of 200 to 1000 nM. Moreover, at THR beta-LBD, the “THRβ Emax” value is “B (75~90)” and the 50% effective concentration (EC50) lay within 2 to 20 nM.
For `O=C(NC1CC(F)(F)C1)c1cc(Oc2c(Cl)cc(-n3nc(C(F)(F)F)c(=O)[nH]c3=O)cc2Cl)ccc1O` [Compound 3, 5-[2,6-dichloro-4-[3,5-dioxo-6-(trifluoromethyl)-1,2,4-triazin-2-yl]phenoxy]-N-(3,3-difluorocyclobutyl)-2-hydroxy-benzamide], in that order: “B (40~85)”, greater than 1000 nM, “A (90~110)” and 20 to 100 nM.
On the same counts, the results for `CC(C)(C)NC(=O)c1cc(Oc2c(Cl)cc(-n3nc(C(F)(F)F)c(=O)[nH]c3=O)cc2Cl)ccc1O` [Compound 4, N-(tert-butyl)-5-(2,6-dichloro-4-(3,5-dioxo-6-(trifluoromethyl)-4,5-dihydro-1,2,4-triazin-2(3H)-yl)phenoxy)-2-hydroxybenzamide] are “B (40~85)”, 200 to 1000 nM, “A (90~110)” and 20 to 100 nM.
As for `O=C(NC1CCC1)c1cc(Oc2c(Cl)cc(-n3nc(C(F)(F)F)c(=O)[nH]c3=O)cc2Cl)ccc1O` [Compound 5, N-cyclobutyl-5-(2,6-dichloro-4-(3,5-dioxo-6-(trifluoromethyl)-4,5-dihydro-1,2,4-triazin-2(3H)-yl)phenoxy)-2-hydroxybenzamide], on THR alpha-LBD, the “THRα Emax” value was “B (40~85)” and the EC50 was greater than 1000 nM. Further, at THR beta-LBD, the “THRβ Emax” value is on record as “A (90~110)” and the concentration giving a half-maximal response (EC50) is 20 to 100 nM.
For `O=C(NC12CC3(F)CC(F)(CC(F)(C3)C1)C2)c1cc(Oc2c(Cl)cc(-n3nc(C(F)F)c(=O)[nH]c3=O)cc2Cl)ccc1O` [Compound 6, 5-(2,6-dichloro-4-(6-(difluoromethyl)-3,5-dioxo-4,5-dihydro-1,2,4-triazin-2 (3H)-yl)phenoxy)-2-hydroxy-N-(3,5,7-trifluoroadamantan-1-yl) benzamide], on THR alpha-LBD, the “THRα Emax” value is “B (40~85)” and the EC50 was greater than 1000 nM. For the same compound, at THR beta-LBD, the “THRβ Emax” value was “B (75~90)” and the half-maximal effective concentration (EC50) was in the range of 20 to 100 nM.
For `O=c1[nH]c(=O)n(-c2cc(Cl)c(S(=O)(=O)c3ccc(O)c(C4CCC4)c3)c(Cl)c2)nc1C(F)(F)F` [Compound 9, 2-[3,5-dichloro-4-(3-cyclobutyl-4-hydroxy-phenyl)sulfonyl-phenyl]-6-(trifluoromethyl)-1,2,4-triazine-3,5-dione], in that order: “B (40~85)”, 200 to 1000 nM, “A (90~110)” and greater than 100 nM.
For `O=C(NC1CCC1)c1cc(Oc2c(Cl)cc(-n3nc(C(F)(F)F)c(=O)[nH]c3=O)cc2Cl)c(F)cc1O` [Compound 10, N-cyclobutyl-5-[2,6-dichloro-4-[3,5-dioxo-6-(trifluoromethyl)-1,2,4-triazin-2-yl]phenoxy]-4-fluoro-2-hydroxy-benzamide], in that order: “C (<40)”, greater than 1000 nM, “B (75~90)” and greater than 100 nM.
For `O=C(NC1CCC1)c1cc(Oc2c(Cl)cc(-n3nc(C(F)F)c(=O)[nH]c3=O)cc2Cl)c(F)cc1O` [Compound 11, N-cyclobutyl-5-[2,6-dichloro-4-[6-(difluoromethyl)-3,5-dioxo-1,2,4-triazin-2-yl]phenoxy]-4-fluoro-2-hydroxy-benzamide], on THR alpha-LBD, the “THRα Emax” value is listed as “B (40~85)” and the EC50 is greater than 1000 nM. Further, on THR beta-LBD, the “THRβ Emax” value is listed as “A (90~110)” and the EC50 was greater than 100 nM.
On to `O=c1[nH]c(=O)n(-c2cc(Cl)c(Oc3ccc(O)c(S(=O)(=O)NC4CCC4)c3)c(Cl)c2)nc1C(F)F` [Compound 12, N-cyclobutyl-5-[2,6-dichloro-4-[6-(difluoromethyl)-3,5-dioxo-1,2,4-triazin-2-yl]phenoxy]-2-hydroxy-benzenesulfonamide], for which, on THR alpha-LBD, the “THRα Emax” value is given as “A (85~110)” and the EC50 is less than 2 nM. At THR beta-LBD, the “THRβ Emax” value is “A (90~110)” and the concentration for a half-maximal effect (EC50) is less than 2 nM.
